One assay relates to murine iNKT cell. As to conditions: as compared to αGalCer; cited from earlier work.
The next assay has as its system human iNKT cell. The note with it: as compared to αGalCer; cited from earlier work.
Another assay has as its system B6 wild type mice. The experiment in a line: Murine serum cytokine/chemokine secretion after i.v. glycolipid, B6 WT mice. The note with it: i.v. 1 μg/mouse; for induction of serum cytokines/chemokines: sera 2 and 18 hr after injection. It is filed as in vivo. The procedure:
(§1) All the glycolipids were dissolved in 100% DMSO at a concentration of 1-2 mg/ml. For in vivo experiments, all compounds were diluted to 10 μg/ml in saline just before injection of 100 μl diluted glycolipid or 100 μl 1% DMSO into mice. Pathogen-free C57BL/6 female mice aged 6-12 weeks were obtained from the National Laboratory Animal Center (Taipei, Taiwan). Jα18 knockout (KO) B6 mice were the gifts from Dr. Masaru Taniguchi (RIKEN Research Center for Allergy and Immunology, Yokohama, Japan). All the mice were maintained in pathogen free vivarium of Institute of Cellular and Organismic Biology, Academia Sinica (Taipei, Taiwan).
(§2) B6 WT or Jα18 KO mice were intravenously injected with vehicle or glycolipids at 0.1 or 1 μg/mouse. Serum was collected at 2 and 18 h after injection for measurement of cytokines/chemokines by Beadlyte® Mouse Cytokine kit (Millipore, N.Y.) and read by a Luminex® 200™ system (Luminex, Austin, Tex.).

The subject of another assay is B6 WT mice splenocytes. Description: FACS analyses of WT mouse immune cells (splenocytes) after glycolipid stimulation. It is filed as in vivo. The note with it: 1 μg/mouse, 72 hr post-injection. As to the method: (§3) B6 WT or Jα18 KO mice treated with specific glycolipid (1 μg/mouse) or vehicle (1% DMSO in PBS) were sacrificed at 72 hr post-injection and their spleens were harvested. After pressing spleens through 70 um strainer and lysis of erythrocytes, the nucleated cells were resuspended in PBS buffer containing azide (0.05%) and stained with antibodies recognizing the indicated cell surface antigens for 30 min at 4° C. After washing, the splenocytes were subjected to FACS analysis. The antibodies against CD3, CD4, CD8β, CD11c, CD80, and CD86 were obtained from BD Bioscience-Pharmingen.

Another assay concerns the target mouse iNKT TCR (Mus musculus, UniProt A0A0B4J1J9+P11609). Description: Binding avidity of mCD1d-loaded glycolipids to Vα14+ iNKT cells (ternary interaction). As to conditions: for Kd: mCD1d-glycolipid complex, DN3A4-1.2 murine iNKT hybridoma cells. As to the method:
Briefly, murine CD1d:Ig dimer (BD Biosciences PharMingen, San Diego, Calif.) was loaded with glycolipids at a molar ratio of 1:10 or vehicle for overnight at 37° C. Murine 1.2 Vα14^+ iNKT cells were incubated with various doses of dimer-glycolipid complex in buffer containing azide (0.05%) for 30 min at 4° C. These cells were then stained with anti-mouse IgG1-PE mAb (A85-1) for another 30 min at 4° C., followed by washing, fixation with 4% paraformaldehyde (PFA), and the bound mCD1d dimer complexes were detected by flow cytometry. The binding curve and linear fit of the Scatchard transformation were plotted by Graphpad Prism software.

Assay [1] has as its system Human naïve Vα24+ iNKT cells. Description: Expansion of human iNKT cells. It counts as cell-based. As to conditions: DCs pulsed with glycolipid at 100 ng/ml, IL-2 culture. The procedure:
Human naïve Vα24^+ iNKT cells were cultured with autologous immature CD14^+ DCs pulsed with the indicated glycolipid at 100 ng/ml or DMSO on day 2 for 18 h. On day 3, the suspension cells were transferred to a new dish, cultured in the presence of 50 U/ml IL-2 (R & D Systems), and replenished with fresh medium every 3 days. The percentage of Vα24^+/Vβ11^+ cells was determined by flow cytometry on day 9. The total cell number after expansion was calculated with the Guava ViaCount reagent (Millipore, USA) and detected by the Guava system with CytoSoft™ software containing the ViaCount module (Millipore, USA).
Vα24^+ iNKT cells and CD14^+ cells were isolated from peripheral blood cells as described previously.^19 Immature DCs were generated from the CD14^+ cells after 2-day incubation in the presence of 300 U/ml GM-CSF (R & D Systems) and 100 U/ml IL-4 (R& D Systems).

Assay [2] deals with Jα18 KO mouse splenocytes. Description: FACS analyses of Jα18 KO mouse immune cells (splenocytes) after glycolipid stimulation. It is filed as in vivo. The note with it: Jα18 KO mice, 3 days after i.v. injection, 1 μg/mouse. The procedure:
as §3

The subject of the next assay is C1-pulsed splenocytes. Description: CD1d dimer staining of in vivo C1-pulsed splenocytes. It is filed as binding. As to conditions: B6 WT splenocytes 3 days after C1 1 μg/mouse, CD3+/CD45R− gate. As to the method: FIGS. 11A-D show: CD1d dimer staining of in vivo C1-pulsed splenocytes. B6 WT splenocytes (n=3) were harvested 3 days after injection with C1 (1 μg/mouse) and stained with CD3, CD45R and the indicated dimer complex conjugated with RPE for 1 hr at 4 degrees Celsius. (11A) CD3+/CD45R− cells were gated to analyze the dimer staining. (11B) unloaded dimer was used as the control. (11C) mCD1d dimer loaded with 7DW8-5-Glc stained 17.1±0.8% of C1-pulsed splenocytes. (11D) mCD1d dimer loaded with 7DW8-5 stained 36.2±5.0% of C1-pulsed splenocytes.

The next assay deals with T1, mCD1d dimer (Mus musculus, UniProt P11609).
T1 construct: Ig fusion (dimer); purchased BD Biosciences PharMingen
T1 sequence (P11609 19-305 limits assumed): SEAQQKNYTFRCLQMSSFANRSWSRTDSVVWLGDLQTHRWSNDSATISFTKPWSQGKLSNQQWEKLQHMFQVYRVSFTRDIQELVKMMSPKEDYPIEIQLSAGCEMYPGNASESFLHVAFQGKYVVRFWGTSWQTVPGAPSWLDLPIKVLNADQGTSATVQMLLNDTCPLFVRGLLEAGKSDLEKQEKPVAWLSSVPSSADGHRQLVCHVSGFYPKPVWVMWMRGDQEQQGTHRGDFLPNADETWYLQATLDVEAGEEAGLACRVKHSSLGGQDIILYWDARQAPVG
T1 sequence (P01887 21-119 partner): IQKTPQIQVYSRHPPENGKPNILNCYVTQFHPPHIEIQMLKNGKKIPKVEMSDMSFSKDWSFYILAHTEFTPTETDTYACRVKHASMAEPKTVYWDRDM
The experiment in a line: Binding strength of the binary complex between mCD1d and glycolipid (L363 antibody ELISA). As to conditions: KD from Scatchard transformation (FIG. 10D). The procedure: Different concentrations of mCD1d^di-glycolipid complexes coated on the ELISA plate were incubated with the saturated amounts of L363 antibody (BioLegend) conjugated with biotin, followed by streptavidin-HRP detection and ELISA measurement. The KD between L363 antibody and the indicated mCD1d^di-glycolipid complex was calculated from the linear regression of the Scatchard transformation of the L363 antibody binding curve using GraphPad Prism software. […] Next, the KD of the binary complex was determined as follows. Different concentrations of glycolipids were incubated with fixed amounts of mCD1d dimer at 37° C. overnight, and then mCD1d^di-glycolipid complexes were coated on the 96 well ELISA plate at 4° C. overnight. After washing and blocking with BSA at room temperature (RT) for 1 hr, L363 antibody conjugated with biotin was added for 30 min at RT, followed by incubation with streptavidin-HRP for 30 min at RT and detection with an ELSIA reader. KD values of the binary complex were calculated from the linear regression of the Scatchard transformation of the L363 antibody binding curve.

Assay [3] concerns Jα18 knockout mice. Description: Murine serum cytokine/chemokine secretion after i.v. glycolipid, Jα18 knockout mice. As to conditions: Jα18 KO mice, 1 μg/mouse. It is filed as in vivo. As to the method: as §1, §2
Another assay concerns the target human iNKT TCR (Homo sapiens, UniProt A0A0B4J240+P15813). Description: Binding avidity of hCD1d-loaded glycolipids with Vα24+ iNKT cells (ternary interaction). As to the method:
Binding avidity of human CD1d-glycolipid complexes to Vα24^+ iNKT cells expanded by 7DW8-5 at 100 ng/ml was determined as described previously.^19
(§4) Vα24^+ iNKT cell lines expanded with 7DW8-5 or C1 were generated as follows. After irradiation with 2,000 rad, the immature DCs were cocultured with syngenic Vα24^+ iNKT cells in the presence of 7DW8-5 or C1 at 100 ng/ml for 1 day. The cells were expanded in the presence of 50 U/ml IL-2 for 10-14 days after lipid removal. The same procedures were repeated once for further stimulation and expansion of iNKT cells.

For assay [4], the system named is Murine DN3A4-1.2 Vα14+ iNKT hybridoma cells. Description: mCD1d vs. hCD1d swapping assay, murine iNKT cells. It is filed as cell-based, mouse. The note with it: presented by mCD1d (A20-CD1d) or hCD1d (HeLa-CD1d), 1, 0.1, 0.01 μg/ml. As to the method:
(§5) Murine DN3A4-1.2 Vα14^+ iNKT hybridoma cells or C1-expanded Vα24^+ iNKT cells were pulsed with the indicated glycolipid antigen presented either by mCD1d (A20-CD1d cells) or hCD1d (HeLa-CD1d cells) at 1, 0.1, and 0.01 μg/ml. After 18 hr, the supernatants were harvested for the measurement of cytokine secretion(s). IL-2 released from Vα14^+ iNKT cells was determined by ELISA assay. IFN-γ, IL-4 and IL-2 secreted from Vα24^+ iNKT cells were detected using Beadlyte® Human Cytokine kit (Millipore, N.Y., USA) and Luminex® 200™ reading system.

The test system of assay [5] is C1-expanded Vα24+ iNKT cells. Description: mCD1d vs. hCD1d swapping assay, human iNKT cells. It is filed as cell-based. As to conditions: presented by mCD1d (A20-CD1d) or hCD1d (HeLa-CD1d), 1, 0.1, 0.01 μg/ml. As to the method:
as §4, §5

Assay [6] has as its system Jα18 knockout mice. As to conditions: Jα18 KO mice; cited from earlier work.

“Also recorded” adds a separate entry of the source.

Chain of mouse iNKT TCR (A0A0B4J1J9 entry or part of it, one chain of several): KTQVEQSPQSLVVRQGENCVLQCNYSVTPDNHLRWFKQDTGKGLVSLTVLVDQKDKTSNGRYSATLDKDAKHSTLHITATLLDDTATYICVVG
Chain of human iNKT TCR (A0A0B4J240 22-114): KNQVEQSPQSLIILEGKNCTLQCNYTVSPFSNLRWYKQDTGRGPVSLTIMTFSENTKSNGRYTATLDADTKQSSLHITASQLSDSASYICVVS
Chain of human iNKT TCR (A0A075B6N4 22-114, further chain): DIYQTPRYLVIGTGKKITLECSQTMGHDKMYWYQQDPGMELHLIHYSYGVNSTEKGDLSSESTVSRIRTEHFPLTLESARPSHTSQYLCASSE
Chain of human iNKT TCR (P61769 21-119, further chain): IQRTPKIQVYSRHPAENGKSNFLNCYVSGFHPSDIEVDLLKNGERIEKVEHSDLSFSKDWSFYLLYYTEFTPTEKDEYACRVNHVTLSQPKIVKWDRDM
Chain of human iNKT TCR (P15813 20-301): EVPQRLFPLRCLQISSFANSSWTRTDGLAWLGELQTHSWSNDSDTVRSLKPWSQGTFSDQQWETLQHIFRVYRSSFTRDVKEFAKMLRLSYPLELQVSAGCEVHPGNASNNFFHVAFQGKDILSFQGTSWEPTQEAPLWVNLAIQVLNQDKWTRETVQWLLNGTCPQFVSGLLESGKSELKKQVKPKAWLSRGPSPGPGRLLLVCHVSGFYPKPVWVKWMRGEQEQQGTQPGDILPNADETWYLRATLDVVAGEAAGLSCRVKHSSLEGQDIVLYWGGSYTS

For `CCC(=O)N[C@@H](CO[C@H]1OC(CO)[C@@H](O)C(O)C1O)[C@H](O)[C@H](O)CC` (stereo partly drawn) [Compound C1-Glc], in the assay with murine iNKT cell, the “murine iNKT cell proliferation” value was “less stimulatory”. Further, the “human iNKT cell proliferation” value in the assay on human iNKT cell was “more potent”. In the assay on B6 wild type mice, the “induction of serum cytokines/chemokines” value is “triggered both cytokines and chemokines; also recorded: better than 7DW8-5-Glc”. For the same compound, in the assay on B6 WT mice splenocytes, the “CD80+ DCs activated, as compared to 7DW8-5-Glc” value is around 3.5 fold; the “CD86+ DCs activated, as compared to 7DW8-5-Glc” value is recorded as around 3 fold; the “total splenocytes and DCs expanded, as compared to 7DW8-5-Glc” value was around 1.3 fold. At mouse iNKT TCR, this compound yielded a Kd of 5.14 ± 0.11 nM.

On to `CC[C@@H](O)[C@@H](O)[C@H](CO[C@H]1OC(CO)[C@@H](O)C(O)C1O)NC(=O)Cc1ccc(F)cc1` (stereo partly drawn) [Compound 7DW8-5-Glc], for which the “expanding human iNKT cells in vitro (number of expanded iNKT cells on day 9)” value in assay [1] is “significantly (p=0.0009) better than 7DW8-5”. Besides, in [2], the “CD11chi monocyte-derived DCs expansion and activation” value is “significantly expanded and activated”; the “total splenocytes, CD4+ T and CD8+ T cells” value is recorded as “No significant differences”. Further, in the assay on C1-pulsed splenocytes, the “C1-pulsed splenocytes stained by mCD1d dimer loaded with glycolipid” value is recorded as 17.1±0.8%. Also, in the assay on B6 wild type mice (sera 2 and 18 hr), the “levels of KC, MCP-1, IP-10 and MIG chemokines” value is “relatively high levels”; the “levels of Th1 and Th2 cytokines” value is “very low levels”. On mCD1d dimer, the “binding avidity to mCD1d dimer relative to αGalCer” value is recorded as around 20 fold. In addition, the “binding avidity of the murine ternary complex versus C34-Glc” value at mouse iNKT TCR is listed as “comparable”. Besides, in the assay with Jα18 knockout mice [3], the “secretion of chemokines including KC, MCP-1, IP-10 and MIG” value was “triggered the secretion”. The induction of cytokines result in the assay on Jα18 knockout mice [3] (sera 2 and 18 hr after injection) is “no induction of cytokines”.

As for `CC[C@@H](O)[C@@H](O)[C@H](CO[C@H]1OC(CO)[C@@H](O)C(O)C1O)NC(=O)Cc1ccc(Oc2ccc(F)cc2)cc1` (stereo partly drawn) [Compound C34-Glc], in the assay with B6 wild type mice, the “induction of serum cytokines/chemokines” value is “triggered both cytokines and chemokines; also recorded: better than 7DW8-5-Glc”. Besides, in the assay with B6 WT mice splenocytes, the “CD80+ DCs activated, as compared to 7DW8-5-Glc” value is listed as around 2 fold and the “CD86+ DCs activated, as compared to 7DW8-5-Glc” value is given as around 2 fold. Moreover, the Kd at mouse iNKT TCR was determined as 7.96 ± 1.27 nM.

For the compound `CCCCCCCCCCCCCC[C@@H](O)[C@@H](O)[C@H](CO[C@H]1O[C@H](CO)[C@@H](O)[C@H](O)[C@@H]1O)NC(=O)CCCCCCCCCCc1ccc(F)cc1` [Compound 7DW8-5-Man], the “staining of human iNKT cells with CD1d-glycolipid dimer” value at human iNKT TCR is “lack of staining”. In addition, the “cytokine secretion from mouse iNKT cells” value in assay [4] is reported as “could not stimulate”. Also, the “cytokine secretion from human iNKT cells” value in assay [5] is “could not stimulate”. For the same compound, in the assay on B6 wild type mice, the “induction of serum cytokines/chemokines” value was “failed to induce any cytokines/chemokines”. Further, the “expansion of immune cells” value with B6 WT mice splenocytes is “did not expand any types of immune cells”. Besides, at mouse iNKT TCR, the “staining of murine iNKT cells with CD1d-glycolipid dimer” value was “lack of staining”.

For the compound `CCCCCCCCCCCCCCCCCCCCCCCCCC(=O)N[C@@H](CO[C@H]1O[C@H](CO)[C@H](O)[C@H](O)[C@H]1O)[C@H](O)[C@H](O)CCCCCCCCCCCCCC` [Compound C1, α-galactosylceramide, reference compound], the Kd on human iNKT TCR (hCD1d-glycolipid complex, human Vα24+/Vβ11+ iNKT cells) was determined as 16.4 ± 4.2 nM; at mouse iNKT TCR, 1.24 ± 0.003 nM. Also, the “IFN-γ in the sera” value in the assay on Jα18 knockout mice [6] was “not secreted”.

These data come from US10918714B2, “Human iNKT cell activation using glycolipids with altered glycosyl groups” (Academia Sinica, priority 2013, dated 2021).
